# According to patent US7709514B2, “Therapeutic molecules and methods-1” (Cortical Pty Ltd, priority 2002, dated 2010):
# Assays:
# [1] = tested on: murine endotoxic shock model; experiment: murine endotoxic shock model (LPS), cytokines by ELISA; type: in vivo, mice
# Description: The activity of compound 5 was studied in the murine endotoxic shock model. This model has been previously shown to be dependent on MIF (21). Administration of a substance which inhibits the cytokine or biological activity of MIF would be expected to result in a reduction in serum levels of cytokines such as IL-1 or IL-6. Endotoxaemia was induced by intra-peritoneal injection of lipopolysaccharide (LPS) (15 mg/kg) in 400 μl saline. Mice were treated with a saline solution (control) only, a saline solution and LPS, or LPS and compound 5 at a dose of 15 mg/kg body weight, administered by intra-peritoneal injection at 24 hours, 12 hours and 1 hour before intra-peritoneal LPS injection. After 1.5 hours mice were humanely killed by CO2 inhalation then neck dislocation. Serum was obtained from blood obtained by cardiac puncture prior to death and measured for cytokines including interleukin 1 (IL-1) and interleukin 6 (IL-6) by ELISA. The production of IL-1 and IL-6 has been previously shown to be dependent on MIF (22). Macrophages were obtained by lavage of the peritoneal cavity using normal saline and placed into 24 well tissue culture plates for 18 hours in RPMI/10% FCS. The cultured peritoneal macrophage supernatants were then analysed for cytokines including IL-6. The peritoneal lavage supernatants were also analysed for cytokines including IL-6.
# The effect of compound 5 was tested under a variety of conditions in animals exposed to endotoxic shock induced as above by the injection of 15 mg/kg LPS by intraperitoneal injection. In each case compounds were administered by intraperitoneal injection at a dose of 15 mg/kg. Compound 5 administration was associated with reductions in serum IL-1, IL-6, and TNF concentration whether administered by intraperitoneal injection (IP) or by oral gavage, and under a variety of administration regimens.
# [2] = tested on: murine antigen induced arthritis; experiment: murine antigen-induced arthritis, histological score; type: in vivo, mice; conditions: 15 mg/kg IP once per 24 hours, day 28
# Description: Antigen-induced arthritis was induced in mice. C57BL6/J male mice, aged 7-10 weeks old, were immunized on day 0 with 200 μg methylated BSA (mBSA) emulsified in 200 μl of Freund's complete adjuvant (FCA) injected subcutaneously into the flank skin. Mice were treated with compound 5, administered by intraperitoneal injection, once per 24 hours at a dose of 15 mg/kg body weight. After seven days, mice received 100 μg mBSA and 100 μl FCA by intradermal injection at the base of the tail. After a further 14 days, arthritis was induced by intra-articular injection of 30 μg mBSA in 10 μl of sterile saline into the left knee, the right knee being injected with sterile saline alone.
# Arthritis was analysed histologically at day 28 after first immunisation. Knee joints were dissected and fixed in 10% buffered formalin for 7 days. Fixed tissues were decalcified for 3 weeks in 15% ethylene-diamine-tetra-acetic acid (EDTA), dehydrated and embedded in paraffin. Sagittal sections (5 μm) of the knee joint were stained with Safranin-O and counterstained with fast green/iron hematoxylin. Histological sections were scored from 0 to 3 for four parameters: Synovitis was defined as hyper-cellularity of the synovium including pannus formation. Joint space exudate was identified as leukocytes, discretely or in aggregates, in the joint space. Cartilage degradation was defined as the loss of Safranin-O staining of articular cartilage (0=full stained cartilage, 3=totally unstained cartilage). Bone damage was defined as the extent and depth of the subchondral bone invasion by pannus. A total score was also generated from the sum of these four parameters (maximum 12).
# [3] = tested on: IL-1-induced proliferation of human rheumatoid arthritis FLS; experiment: inhibition of human rheumatoid arthritis synovial fibroblast proliferation; type: cell-based
# Description: Fibroblast-like synoviocytes (FLS) were obtained from synovium of rheumatoid (RA) patients undergoing joint replacement surgery and prepared according to Lacey et al (26). FLS were isolated using enzyme digestion and cultured in RPMI/10% fetal calf serum (FCS) as previously described. A single cell suspension was obtained by digesting minced synovial tissue with 2.4 mg/ml Dispase (grade II, 5 U/mg) 1 mg/ml collagenase (type II) and DNase (type 1). FLS were propagated in 10 cm culture plates in RPMI supplemented with 10% FCS at 37° C. in a 5% CO2 humidified incubator. Cells beyond 3rd passage were more than 99% CD45−. Cells were used between passages 4 and 9. Cells from four individual human RA donor FLS used.
# To determine the effect of compound 5 on FLS proliferation, DNA synthesis was measured by [^3H] thymidine incorporation. FLS were seeded overnight at 0.5×10^5 cells per well in 24 well tissue culture plates in RPMI/10% FCS. Cell growth was synchronised by culturing FLS in RPMI/0.1% bovine serum albumin for 24 h. […] FLS were detached using Trypsin-EDTA, harvested using a cell harvester, and the radioactivity incorporated into DNA determined using a Wallac 1409 liquid scintillation counter. Results were expressed as the percentage of control (untreated) cell proliferation, and the mean±SEM of four experiments calculated.
smiles,measurement,setting,value
CCCCCOC(=O)c1ccc2[nH]c(=O)[nH]c2c1 [Compound 5],serum IL-1 concentration,"[1]; FIG. 5, LPS alone vs LPS with compound 5",marked reduction
same,"Serum IL-1 at 1.5 h, LPS + cpd","[1]; IP injection 15 mg/kg at −24, −6, −1 h, LPS alone 42.49",39.82
same,"Serum IL-1 at 6 h, LPS + cpd","[1]; IP injection 15 mg/kg at −24, −6, −1 h, LPS alone 786.6",170.2
same,"Serum IL-1 at 1.5 h, LPS + cpd","[1]; IP injection 15 mg/kg at −24, −12, −1 h, LPS alone 484.8",283.8
same,"Serum IL-6 at 1.5 h, LPS + cpd","[1]; IP injection 15 mg/kg at −24, −12, −1 h, LPS alone 92790",75260
same,"Serum IL-6 at 6 h, LPS + cpd","[1]; IP injection 15 mg/kg at −1 h, LPS alone 215100",150300
same,"Serum IL-1 at 1.5 h, LPS + cpd","[1]; IP injection 15 mg/kg at −18 h, LPS alone 301.5",105.9
same,"Serum TNF at 1.5 h, LPS + cpd","[1]; IP injection 15 mg/kg at −18 h, LPS alone 4263",2422
same,Serum IL-6,"[1]; LPS 15 mg/kg IP, compound 15 mg/kg IP at 24, 12 and 1 hour before LPS, 1.5 hours after LPS, LPS only 261.05",99.78 ng/mL
same,Peritoneal lavage IL-6,"[1]; LPS 15 mg/kg IP, compound 15 mg/kg IP at 24, 12 and 1 hour before LPS, LPS only 16.11",7.07 ng/mL
same,Cultured peritoneal macrophage IL-6,"[1]; LPS 15 mg/kg IP, compound 15 mg/kg IP at 24, 12 and 1 hour before LPS, macrophages cultured 18 hours, LPS only 3.40",1.33 ng/mL
same,"serum IL-1, IL-6, and TNF concentration","[1]; LPS 15 mg/kg, IP or oral gavage, variety of administration regimens",reductions
same,"Serum IL-1 at 1.5 h, LPS + cpd","[1]; Oral gavage 5 mg/kg at −24 h, −1 h, LPS alone 237.0",182.5
same,"Serum IL-1 at 1.5 h, LPS + cpd","[1]; Oral gavage 15 mg/kg at −24, −6, −1 h, LPS alone 103.7",47.1
same,"Serum IL-1 at 1.5 h, LPS + cpd","[1]; Oral gavage 15 mg/kg at −24 h, LPS alone 292.0",152.6
same,"Serum IL-6 at 1.5 h, LPS + cpd","[1]; Oral gavage 15 mg/kg at −24 h, LPS alone 121100",80250
same,total arthritis score,"[2]; FIG. 10a, p=0.0024",statistically significant reduction
same,severity of all individual parameters of arthritis,[2]; FIG. 10b,Statistically significant reductions
same,"FLS proliferation, percentage of control (untreated) cell proliferation","[3]; IL-1β 0.1 ng/ml + compound 5 50 μM, mean±SEM of four experiments, IL-1 + vehicle 156 ± 32",18 ± 6 percentage of control
same,IL-1-induced FLS proliferation,[3]; compound 5 50 μM,marked and statistically significant inhibition
